From ChEMBL document CHEMBL1152762, “Medicinal chemistry approaches to the inhibition of dipeptidyl peptidase-4 for the treatment of type 2 diabetes” (Bioorg Med Chem, 2009)
Each block holds one molecule with its values, some of them ahead of it.

Key:
Mus musculus = experiment: Reduction of glucose excursion in C57BL6/N mouse at 3 mg/kg, po; format: functional; parameters: scale not given: the % may be the effect or the level left
Rattus norvegicus [1] = experiment: Ex-vivo inhibition of DPP4 in rat plasma at 10 mg/kg, po after 12 hrs; format: functional
Rattus norvegicus [2] = species on record: Rattus norvegicus; experiment: animal or person; details: Plasma, 0.5 h, read-out: INH
Rattus norvegicus [3] = species on record: Rattus norvegicus; experiment: animal or person; details: Plasma, 4 h, read-out: INH
Dipeptidyl peptidase 4 [4] = molecular target: T1, Dipeptidyl peptidase 4 (Rattus norvegicus, UniProt P14740)
Dipeptidyl peptidase 2 [5] = molecular target: T2, Dipeptidyl peptidase 2 (Homo sapiens, UniProt Q9UHL4)
[6] = Selectivity for DPP4 over DPP8
Dipeptidyl peptidase 4 [7] = molecular target: Dipeptidyl peptidase 4 (Homo sapiens, UniProt P27487)
Dipeptidyl peptidase 2 [8] = molecular target: T2, Dipeptidyl peptidase 2; experiment: Inhibition of DPP7
[9] = Stability in pH 7.4 buffer; format: physicochemical
Prolyl endopeptidase FAP = molecular target: T3, Prolyl endopeptidase FAP (Homo sapiens, UniProt Q12884); experiment: Inhibition of FAP
T3 sequence (Q12884 whole entry): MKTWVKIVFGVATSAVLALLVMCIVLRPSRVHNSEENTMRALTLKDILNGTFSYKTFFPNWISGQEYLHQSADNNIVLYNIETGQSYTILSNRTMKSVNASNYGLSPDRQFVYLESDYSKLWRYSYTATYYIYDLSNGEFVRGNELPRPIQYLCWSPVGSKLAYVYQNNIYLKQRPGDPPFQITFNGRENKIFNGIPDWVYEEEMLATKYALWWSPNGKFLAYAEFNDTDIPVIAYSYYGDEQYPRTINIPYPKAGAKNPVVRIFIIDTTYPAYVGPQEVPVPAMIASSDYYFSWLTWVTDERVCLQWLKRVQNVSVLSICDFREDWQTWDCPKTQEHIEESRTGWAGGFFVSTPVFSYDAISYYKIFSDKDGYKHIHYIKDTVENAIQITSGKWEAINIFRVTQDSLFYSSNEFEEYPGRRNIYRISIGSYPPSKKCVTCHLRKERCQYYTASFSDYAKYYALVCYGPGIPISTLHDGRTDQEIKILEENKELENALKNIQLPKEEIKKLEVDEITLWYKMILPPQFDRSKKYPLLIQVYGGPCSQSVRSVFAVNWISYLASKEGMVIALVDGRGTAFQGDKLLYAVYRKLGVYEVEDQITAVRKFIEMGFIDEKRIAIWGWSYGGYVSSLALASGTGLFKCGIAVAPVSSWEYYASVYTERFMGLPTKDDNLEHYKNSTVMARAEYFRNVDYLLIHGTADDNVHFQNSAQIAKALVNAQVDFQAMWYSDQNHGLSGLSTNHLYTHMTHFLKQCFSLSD

Dipeptidyl peptidase 8 = Dipeptidyl peptidase 8 (Homo sapiens, UniProt Q6V1X1)
Dipeptidyl peptidase 9 = Dipeptidyl peptidase 9 (Homo sapiens, UniProt Q86TI2); experiment: Inhibition of DPP9
[10] = Oral bioavailability in Sprague-Dawley rat at 10 mg/kg; format: ADME, organism-based; details: in vivo
Dipeptidyl peptidase 4 [11] = molecular target: T1, Dipeptidyl peptidase 4; remark: listed apart in the source
[12] = Half life in Sprague-Dawley rat at 10 mg/kg, po; format: ADME, organism-based; parameters: dose 10 mg/kg, route oral; details: in vivo
[13] = Cmax in Wistar rat at 1 mg/kg after 10 mins; format: ADME, organism-based; parameters: dose 1 mg/kg; details: in vivo
Rattus norvegicus [14] = species on record: Rattus norvegicus; experiment: animal or person; details: Plasma, po, 6 h, read-out: INH
Rattus norvegicus [15] = species on record: Rattus norvegicus; experiment: animal or person; details: Plasma, po, 10 h, read-out: INH
[16] = Oral bioavailability in cynomolgus monkey; format: ADME, organism-based, Macaca fascicularis; details: in vivo
Rattus norvegicus [17] = species on record: Rattus norvegicus; experiment: animal or person; details: Plasma, 6 h, read-out: INH
Rattus norvegicus [18] = species on record: Rattus norvegicus
Dipeptidyl peptidase 4 [19] = molecular target: Dipeptidyl peptidase 4 (Mus musculus, UniProt P28843); experiment: Inhibition of mouse DPP4
Dipeptidyl peptidase 4 [20] = molecular target: Dipeptidyl peptidase 4 (Sus scrofa, UniProt P22411); experiment: Inhibition of pig kidney DPP4
Sequence of Dipeptidyl peptidase 4 (Sus scrofa, UniProt P22411) (P22411 whole entry): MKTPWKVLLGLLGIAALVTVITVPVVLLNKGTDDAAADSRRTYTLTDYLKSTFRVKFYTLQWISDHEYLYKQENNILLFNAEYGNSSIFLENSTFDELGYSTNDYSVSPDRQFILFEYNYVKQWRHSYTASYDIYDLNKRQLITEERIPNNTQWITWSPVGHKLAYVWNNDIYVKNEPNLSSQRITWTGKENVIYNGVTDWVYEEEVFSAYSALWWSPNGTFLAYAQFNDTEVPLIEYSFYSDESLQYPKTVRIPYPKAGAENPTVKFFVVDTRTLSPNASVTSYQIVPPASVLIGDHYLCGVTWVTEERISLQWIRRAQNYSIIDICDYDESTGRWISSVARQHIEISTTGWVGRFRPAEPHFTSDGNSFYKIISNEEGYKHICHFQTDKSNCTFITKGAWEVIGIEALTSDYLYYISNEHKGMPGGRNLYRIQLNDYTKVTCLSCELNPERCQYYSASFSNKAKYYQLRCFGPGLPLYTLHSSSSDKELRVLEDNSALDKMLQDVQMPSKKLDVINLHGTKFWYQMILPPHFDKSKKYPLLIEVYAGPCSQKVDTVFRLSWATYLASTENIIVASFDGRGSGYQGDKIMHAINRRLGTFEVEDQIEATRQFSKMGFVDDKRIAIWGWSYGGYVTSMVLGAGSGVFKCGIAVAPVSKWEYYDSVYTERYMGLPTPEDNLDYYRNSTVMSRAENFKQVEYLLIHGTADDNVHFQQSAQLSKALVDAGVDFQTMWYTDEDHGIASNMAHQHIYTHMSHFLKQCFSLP

T1 sequence (P14740 whole entry): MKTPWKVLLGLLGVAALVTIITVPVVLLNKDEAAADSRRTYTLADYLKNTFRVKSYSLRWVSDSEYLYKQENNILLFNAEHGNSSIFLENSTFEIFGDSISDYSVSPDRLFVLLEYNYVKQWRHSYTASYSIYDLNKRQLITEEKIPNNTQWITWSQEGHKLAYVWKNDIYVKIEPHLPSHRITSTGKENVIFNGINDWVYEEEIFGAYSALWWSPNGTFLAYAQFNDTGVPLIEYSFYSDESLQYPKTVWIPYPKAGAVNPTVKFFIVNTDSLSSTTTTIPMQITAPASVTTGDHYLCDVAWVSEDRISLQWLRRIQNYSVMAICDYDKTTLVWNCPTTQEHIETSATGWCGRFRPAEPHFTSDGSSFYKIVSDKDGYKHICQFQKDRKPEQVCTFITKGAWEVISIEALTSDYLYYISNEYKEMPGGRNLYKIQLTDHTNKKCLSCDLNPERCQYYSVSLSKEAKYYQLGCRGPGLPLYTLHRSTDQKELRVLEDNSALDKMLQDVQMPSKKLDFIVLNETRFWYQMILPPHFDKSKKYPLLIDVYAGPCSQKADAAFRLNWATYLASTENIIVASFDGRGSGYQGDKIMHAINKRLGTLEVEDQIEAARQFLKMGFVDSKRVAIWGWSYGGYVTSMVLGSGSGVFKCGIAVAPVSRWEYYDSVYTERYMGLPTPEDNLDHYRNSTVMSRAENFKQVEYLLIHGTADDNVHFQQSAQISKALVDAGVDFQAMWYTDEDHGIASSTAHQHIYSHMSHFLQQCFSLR
Sequence of Dipeptidyl peptidase 4 (Homo sapiens, UniProt P27487) (P27487 whole entry): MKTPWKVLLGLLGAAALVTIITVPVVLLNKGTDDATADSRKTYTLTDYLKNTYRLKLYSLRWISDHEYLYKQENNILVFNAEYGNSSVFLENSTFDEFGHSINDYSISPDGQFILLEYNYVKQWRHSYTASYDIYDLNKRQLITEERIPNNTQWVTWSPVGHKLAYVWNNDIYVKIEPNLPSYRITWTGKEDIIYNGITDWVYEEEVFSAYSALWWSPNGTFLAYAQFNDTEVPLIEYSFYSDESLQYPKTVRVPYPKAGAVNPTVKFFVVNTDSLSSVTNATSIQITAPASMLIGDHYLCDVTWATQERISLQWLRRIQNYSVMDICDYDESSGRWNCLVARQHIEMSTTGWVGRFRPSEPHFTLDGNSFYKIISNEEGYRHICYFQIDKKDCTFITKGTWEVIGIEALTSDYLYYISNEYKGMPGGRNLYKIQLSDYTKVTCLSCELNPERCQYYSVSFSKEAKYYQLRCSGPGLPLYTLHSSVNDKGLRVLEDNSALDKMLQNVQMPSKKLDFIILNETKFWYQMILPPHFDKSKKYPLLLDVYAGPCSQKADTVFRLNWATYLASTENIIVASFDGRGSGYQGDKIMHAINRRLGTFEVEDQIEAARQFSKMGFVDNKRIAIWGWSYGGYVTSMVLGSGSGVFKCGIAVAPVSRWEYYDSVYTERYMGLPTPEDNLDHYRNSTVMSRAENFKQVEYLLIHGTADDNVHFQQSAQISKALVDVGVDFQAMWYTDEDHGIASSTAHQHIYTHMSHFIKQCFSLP
Sequence of Dipeptidyl peptidase 9 (Q86TI2 whole entry): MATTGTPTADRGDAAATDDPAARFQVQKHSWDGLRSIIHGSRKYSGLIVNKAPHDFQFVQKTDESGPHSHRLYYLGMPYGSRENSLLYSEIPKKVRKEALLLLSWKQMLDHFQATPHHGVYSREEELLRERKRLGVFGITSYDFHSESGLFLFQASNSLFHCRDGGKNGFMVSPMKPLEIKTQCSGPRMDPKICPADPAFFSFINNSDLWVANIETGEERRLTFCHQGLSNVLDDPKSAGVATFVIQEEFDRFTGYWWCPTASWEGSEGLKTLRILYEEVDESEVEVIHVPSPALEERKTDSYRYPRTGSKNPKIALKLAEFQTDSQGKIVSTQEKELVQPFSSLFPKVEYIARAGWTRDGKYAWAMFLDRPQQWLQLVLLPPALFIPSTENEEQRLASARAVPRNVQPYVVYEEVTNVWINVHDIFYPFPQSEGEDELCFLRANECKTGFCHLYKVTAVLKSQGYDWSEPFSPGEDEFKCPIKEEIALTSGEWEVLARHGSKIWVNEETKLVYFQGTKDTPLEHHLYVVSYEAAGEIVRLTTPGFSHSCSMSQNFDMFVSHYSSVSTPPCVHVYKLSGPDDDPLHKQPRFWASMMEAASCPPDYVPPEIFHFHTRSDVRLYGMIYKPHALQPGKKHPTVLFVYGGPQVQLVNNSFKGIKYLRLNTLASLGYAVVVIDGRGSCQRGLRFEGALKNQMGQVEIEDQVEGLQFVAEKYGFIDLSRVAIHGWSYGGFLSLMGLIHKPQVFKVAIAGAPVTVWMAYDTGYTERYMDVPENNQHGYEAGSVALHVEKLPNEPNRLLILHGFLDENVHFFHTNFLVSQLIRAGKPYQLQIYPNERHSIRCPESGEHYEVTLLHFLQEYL
Sequence of Dipeptidyl peptidase 8 (Q6V1X1 whole entry): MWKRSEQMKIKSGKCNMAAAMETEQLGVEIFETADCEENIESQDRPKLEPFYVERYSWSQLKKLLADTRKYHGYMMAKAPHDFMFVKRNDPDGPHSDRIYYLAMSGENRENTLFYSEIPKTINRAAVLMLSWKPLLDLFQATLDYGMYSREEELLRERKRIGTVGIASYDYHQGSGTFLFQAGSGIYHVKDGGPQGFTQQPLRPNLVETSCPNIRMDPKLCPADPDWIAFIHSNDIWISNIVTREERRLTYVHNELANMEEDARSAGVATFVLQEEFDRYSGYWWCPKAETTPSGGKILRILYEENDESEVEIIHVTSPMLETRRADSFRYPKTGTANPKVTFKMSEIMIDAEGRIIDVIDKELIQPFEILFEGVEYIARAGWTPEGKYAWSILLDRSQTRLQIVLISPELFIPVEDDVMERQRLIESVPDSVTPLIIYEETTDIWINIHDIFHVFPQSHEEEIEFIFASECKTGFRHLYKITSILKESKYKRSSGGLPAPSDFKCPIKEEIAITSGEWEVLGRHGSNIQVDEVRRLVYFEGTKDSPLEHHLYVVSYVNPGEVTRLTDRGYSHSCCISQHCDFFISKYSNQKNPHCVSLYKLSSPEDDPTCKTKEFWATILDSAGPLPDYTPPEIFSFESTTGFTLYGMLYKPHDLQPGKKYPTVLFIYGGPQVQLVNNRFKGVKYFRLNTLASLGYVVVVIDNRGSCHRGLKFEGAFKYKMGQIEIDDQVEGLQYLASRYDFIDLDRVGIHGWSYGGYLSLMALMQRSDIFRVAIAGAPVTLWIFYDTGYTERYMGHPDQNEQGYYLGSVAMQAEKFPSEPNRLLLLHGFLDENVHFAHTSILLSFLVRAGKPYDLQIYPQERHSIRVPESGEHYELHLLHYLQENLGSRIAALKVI
Sequence of Dipeptidyl peptidase 4 (Mus musculus, UniProt P28843) (P28843 whole entry): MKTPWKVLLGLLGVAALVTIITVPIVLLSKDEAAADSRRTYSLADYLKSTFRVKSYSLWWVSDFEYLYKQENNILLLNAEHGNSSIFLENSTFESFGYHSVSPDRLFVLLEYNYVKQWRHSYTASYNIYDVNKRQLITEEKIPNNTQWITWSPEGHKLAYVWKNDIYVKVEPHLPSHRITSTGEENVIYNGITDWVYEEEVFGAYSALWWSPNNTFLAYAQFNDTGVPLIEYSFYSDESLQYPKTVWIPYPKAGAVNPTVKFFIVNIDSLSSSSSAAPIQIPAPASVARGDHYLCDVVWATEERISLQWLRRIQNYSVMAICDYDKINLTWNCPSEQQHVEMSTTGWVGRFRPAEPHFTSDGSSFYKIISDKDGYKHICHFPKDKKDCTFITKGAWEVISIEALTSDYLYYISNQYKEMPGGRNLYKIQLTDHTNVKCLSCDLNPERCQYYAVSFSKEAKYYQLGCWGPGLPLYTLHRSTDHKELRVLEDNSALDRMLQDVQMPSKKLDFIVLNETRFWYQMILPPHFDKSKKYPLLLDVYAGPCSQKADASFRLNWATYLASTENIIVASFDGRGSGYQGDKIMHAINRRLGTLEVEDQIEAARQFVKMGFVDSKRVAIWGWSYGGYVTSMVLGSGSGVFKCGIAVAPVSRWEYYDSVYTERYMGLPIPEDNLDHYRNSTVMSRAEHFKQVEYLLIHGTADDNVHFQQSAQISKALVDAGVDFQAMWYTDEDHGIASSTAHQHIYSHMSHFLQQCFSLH

Structure (SMILES): N[C@H](C(=O)N1CC[C@H](F)C1)[C@H]1CC[C@H](NS(=O)(=O)c2ccc(F)cc2F)CC1
Activity (Mus musculus): 42%

Structure (SMILES): N#Cc1ccccc1Cn1c(N2CCC[C@@H](N)C2)nc2ccc(F)cc2c1=O
inhibition in vivo at 10 mg/kg (Rattus norvegicus [1]): 50%

Structure (SMILES): N#C[C@@H]1C[C@@H]2C[C@@H]2N1C(=O)[C@@H](N)C12CC3CC(CC(O)(C3)C1)C2 [SAXAGLIPTIN ANHYDROUS]
inhibition in vivo at 4 µmol/kg (Rattus norvegicus [2]): 87% | inhibition in vivo at 4 µmol/kg (Rattus norvegicus [3]): 87%

Structure (SMILES): O=C(CNC12CC3CC(CC(C3)C1)C2)N1CCC[C@H]1B(O)O
IC50 (Dipeptidyl peptidase 4 [7]): 8 nM | IC50 (Dipeptidyl peptidase 2 [8]): 420 nM

Structure (SMILES): N#C[C@@H]1CCCN1C(=O)[C@@H](N)C1CCCCC1
half-life [9]: > 48 h

Structure (SMILES): CC(N)/C(F)=C1\CCC[C@@H]1C#N (single isomer, unassigned; diastereomer 2)
IC50 (Dipeptidyl peptidase 4 [7]): 6030 nM

Structure (SMILES): Cc1ccc(O)c(C)c1[C@@H]1CN[C@H](C(=O)N2CCC[C@H]2C#N)C1
inhibition in vivo at 1 mg/kg (Rattus norvegicus [14]): 95% | inhibition in vivo at 1 mg/kg (Rattus norvegicus [15]): 83%

Structure (SMILES): N#C[C@@H]1CCCN1C(=O)CNC12CC3CC(CC(O)(C3)C1)C2 [VILDAGLIPTIN]
bioavailability [16]: > 90%

Structure (SMILES): COc1ccc(CS(=O)(=O)C(C)(C)[C@H](N)C(=O)N2C[C@@H](F)C[C@H]2C#N)cc1
inhibition in vivo at 1 mg/kg (Rattus norvegicus [17]): 84%

Structure (SMILES): N[C@H](C(=O)N1CCCC1)[C@H]1CC[C@H](NS(=O)(=O)c2ccc(F)cc2F)CC1
Activity (Mus musculus): 36%

Structure (SMILES): CC(c1nc(-c2ccc(S(C)(=O)=O)cc2Cl)no1)[C@H](N)C(F)=C1CCCC1.O=C(O)C(F)(F)F (stereo partly specified)
IC50 (Rattus norvegicus [18]): 62%

Structure (SMILES): CC(N)/C(F)=C1\CCC[C@@H]1C#N (stereo partly specified)
IC50 (Dipeptidyl peptidase 4 [7]): 7690 nM

Continued, values first:

IC50 (Dipeptidyl peptidase 4 [4]): 0.17 nM
Structure (SMILES): N#Cc1ccc(N[C@@H]2CNC(C(=O)N3CCC[C@H]3C#N)C2)cc1C#N (stereo partly specified)

Ki (Dipeptidyl peptidase 2 [5]): 125 nM
Structure (SMILES): C[C@H](N)C(=O)N1CCC[C@H]1B(O)O

Selectivity ratio [6]: 53 | IC50 (Dipeptidyl peptidase 4 [7]): 251 nM
Structure (SMILES): CC(C)(C)C(NC(=O)C[C@@H](N)C(=O)N1CCC[C@H]1C#N)c1ccccc1 (stereo partly specified)

IC50 (Prolyl endopeptidase FAP): 21000 nM | IC50 (Dipeptidyl peptidase 4 [7]): 0.48 nM | IC50 (Dipeptidyl peptidase 2 [5]): > 100000 nM | IC50 (Dipeptidyl peptidase 8): > 100000 nM | IC50 (Dipeptidyl peptidase 9): > 86000 nM
Structure (SMILES): CC(C)[C@H](Oc1ccc(CNC(=O)[C@@H]2CCCN2C(=O)C[C@H](N)Cc2cc(F)ccc2F)cc1)C(=O)O

bioavailability [10]: 83.9% | IC50 (Dipeptidyl peptidase 4 [11]): 30.4 nM | half-life [12]: 5.27 h
Structure (SMILES): N#Cc1ccc(N[C@@H]2CN[C@H](C(=O)N3CCSC3)C2)nc1

Cmax [13]: 372 ng/mL
Structure (SMILES): CC[C@H](C)[C@H](N)C(=O)N1C[C@@H](F)C[C@H]1C#N

IC50 (Dipeptidyl peptidase 2 [5]): > 100000 nM | IC50 (Dipeptidyl peptidase 8): > 100000 nM | IC50 (Dipeptidyl peptidase 9): > 100000 nM
Structure (SMILES): CN(C)C(=O)[C@@H](c1ccc(C2=CN3N=CNC3C=C2)cc1)[C@H](N)C(=O)N1CC[C@H](F)C1 (stereo partly specified)

IC50 (Dipeptidyl peptidase 4 [7]): 2.28 nM
Structure (SMILES): COc1ccccc1N1CCc2nc(C)c(CN)c(-c3ccc(Cl)cc3Cl)c2C1=O

IC50 (Dipeptidyl peptidase 4 [7]): 18 nM
Structure (SMILES): CC(C)=CCN1C(C2CC[C@H]3NCC[C@@H]23)=NC2C1C(=O)N(CC(=O)c1ccccc1)C(=O)N2C (stereo partly specified)

IC50 (Dipeptidyl peptidase 4 [19]): 2.6 nM
Structure (SMILES): CC1(NCC(=O)N2C[C@H](F)C[C@@H]2C#N)CCN(S(C)(=O)=O)CC1

IC50 (Dipeptidyl peptidase 4 [11]): 780 nM | IC50 (Dipeptidyl peptidase 4 [20]): 490 nM
Structure (SMILES): N#Cc1ccc(NCCNCC(=O)N2N=CCC2C#N)nc1 (stereo unspecified)
